From publication PMC6368403, “Identification of a bilirubin receptor that may mediate a component of cholestatic itch” (eLife, 2019)

Assays:
MRGPRA1 [1] = target: T1, MRGPRA1 (Mus musculus, UniProt Q91WW5); experiment: Ca2+ imaging and concentration-Ca2+ response (EC50) in HEK293 cells expressing MRGPRA1; format: cell-based; details: 50 µM bilirubin, 30 µM FMRF
T1 construct: expressed in transfected cells
T1 sequence (Q91WW5 1-304): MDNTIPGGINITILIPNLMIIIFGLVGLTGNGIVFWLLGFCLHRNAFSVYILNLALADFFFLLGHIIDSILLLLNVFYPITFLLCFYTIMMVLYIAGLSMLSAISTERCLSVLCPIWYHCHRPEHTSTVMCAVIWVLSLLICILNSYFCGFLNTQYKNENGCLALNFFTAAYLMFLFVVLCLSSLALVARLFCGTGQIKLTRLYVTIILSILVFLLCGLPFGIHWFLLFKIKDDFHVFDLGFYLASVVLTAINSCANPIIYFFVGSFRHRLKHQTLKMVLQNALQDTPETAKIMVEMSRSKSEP
Experimental: All cultured cells were maintained in DMEM supplemented with 10% FBS and 1% Penicillin/Streptomycin at 37°C, 5% CO2. All data included were generated from cells tested for mycoplasma and found to be negative. Cells were imaged in calcium imaging buffer (CIB; 10 mM HEPES, 1.2 mM NaHCO3, 130 mM NaCl, 3 mM KCl, 2.5 mM CaCl2, 0.6 mM MgCl2, 20 mM glucose, and 20 mM sucrose at pH 7.4 and 290–300 mOsm). To monitor changes in intracellular [Ca^2+] ([Ca^2+]i), cells were loaded with either Fura 2-AM (HEK293 cells) or Fluo 4-AM (DRG neurons and mast cells) for 30 min in the dark at 37°C in CIB just prior to imaging. With Fura 2-AM, emission at 510 nm was monitored from excitation at both 340 nm and 380 nm. With Fluo 4-AM, emission at 520 nm was monitored from excitation at 488 nm. Cells were identified as responding if the intracellular [Ca^2+] rose by either 50% compared to baseline or 50% compared to the [Ca^2+]i change assayed during addition of 50 mM KCl (neurons only). Damaged, detached, high-baseline, and motion-activated cells were excluded from analysis.
In initial screens, HEK293 cells stably expressing the murine G-protein alpha-subunit Gα15, a unique Gα protein that non-selectively couples a large variety of GPCRs to phospholipase C ^30, were plated on poly-D-lysine-coated coverslips and transiently transfected with constructs encoding the MRGRPR of interest. 12–24 hr later, cells were loaded with the Fura 2-AM. Unless otherwise specified, compounds were perfused into the imaging chamber for approximately thirty seconds after a baseline period was established. Response was then monitored at 5 s intervals for an additional 60 s.
HEK293 cells stably expressing either MRGPRA1, MRGPRX4, and MRGRPC11 were seeded in poly-D-lysine-coated 96-well plates at 10,000 cells/well. Cells were loaded with Fura 2–AM, washed twice, and maintained in CIB. Haem metabolites were freshly dissolved in DMSO in dim light and then diluted into a buffer comprised of 20 mM Tris and 150 mM NaCl at pH 8.8. Potential changes in pH were evaluated prior to each experiment. EC50 values were determined from dose-responses performed in triplicate, repeated 2–4 times. To determine potential antagonism by QWF against bilirubin, cells were treated with varying doses of QWF for 1 min in CIB prior to application of agonist.
HEK293 stable cell lines expressing GFP-tagged MRGPRA3, MRGPRC11, MRGPRD, MRGPRX1, and MRGPRX2 were generated in previously described reports ([Liu et al., 2009]; [Liu et al., 2012]; [McNeil et al., 2015]). Briefly, plasmids containing the receptor of interest were transfected into HEK cells using Lipofectamine 3000. After 3 days, cells were then selected using 0.5 mg/mL G418. After 3 weeks, monoclonal colonies were established and each the highest expressing clones were identified. For this study, Mrgpra1 and MRGPRX4 were inserted into pEGFP-N1 and transfected into HEK293 cells. MRGPR-positive cells were selected using 0.5 mg/mL G418 for three weeks, after which GFP-positive cells were sorted by FACS and monoclonally expanded. Two lines expressing similar levels of MRGPRA1 and MRGPRX4, as measured by GFP fluorescence, were selected for study.

MRGPRA1 [2] = target: T1, MRGPRA1; experiment: Microscale thermophoresis binding to MRGPRA1; parameters: Transformed binding isotherm (mean of three experiments): unit not given here; details: for Transformed binding isotherm (mean of three experiments): MRGPRA1 (Fig 2E)
Experimental: (§1) Binding isotherms for MRGPRA1, MRGPRX4, and MRGRPC11 towards various ligands were determined by microscale thermophoresis with the NanoTemper monolith NT.115 instrument ([Duhr and Braun, 2006]). Ligands were pre-incubated with 10 µM of the GFP-tagged receptor of interest for 5 min at room temperature in binding buffer (20 mM Tris and 150 mM NaCl at pH 8.8). Receptors were crudely purified as a membrane fraction from cells stably expressing the receptor ([Vasavda et al., 2017]). Haem metabolites were freshly dissolved in 0.1 M NaOH in dim light and then diluted into assay buffer. Lyophilized BAM8-22 was dissolved in binding buffer. The pH of each ligand was evaluated prior to incubation with a receptor. Samples were loaded into NT.115 Hydrophobic-Treated Capillaries from NanoTemper. Microscale thermophoretic experiments were executed using 20% LED power and 15% MST power. KDs were calculated using the law of mass action with data from three independent experiments. Binding between bilirubin and receptors was evaluated purely thermophoretically, whereas binding between BAM8-22 and MRGPRC11 was evaluated by T-Jump. Samples with dramatic deviations in initial fluorescence were excluded.

MRGPRX4 = target: T2, MRGPRX4 (Homo sapiens, UniProt Q96LA9); experiment: Microscale thermophoresis binding to MRGPRX4; parameters: microscale thermophoresis response (binding isotherm), mean: unit not given here; details: for microscale thermophoresis response (binding isotherm), mean: mean of n=3, Fig 2-J
T2 construct: expressed in transfected cells
T2 sequence (Q96LA9 whole entry): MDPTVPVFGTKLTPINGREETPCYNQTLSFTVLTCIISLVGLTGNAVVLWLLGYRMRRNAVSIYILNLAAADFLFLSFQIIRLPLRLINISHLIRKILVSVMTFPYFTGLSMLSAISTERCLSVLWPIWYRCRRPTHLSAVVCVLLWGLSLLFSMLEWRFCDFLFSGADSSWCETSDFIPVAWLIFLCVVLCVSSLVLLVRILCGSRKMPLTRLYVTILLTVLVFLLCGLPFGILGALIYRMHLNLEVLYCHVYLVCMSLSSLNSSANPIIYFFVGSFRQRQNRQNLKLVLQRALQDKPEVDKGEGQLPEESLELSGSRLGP
Experimental: as §1

hemin
Calcium response / activation of MRGPRA1-expressing cells (MRGPRA1 [1]): failed to activate MRGPRA1
Transformed binding isotherm (mean of three experiments) (MRGPRA1 [2]; [Ligand] 3.05e-8 M): 0
Transformed binding isotherm (mean of three experiments) (MRGPRA1 [2]; [Ligand] 6.1e-8 M): 0
Transformed binding isotherm (mean of three experiments) (MRGPRA1 [2]; [Ligand] 1.221e-7 M): 0
Transformed binding isotherm (mean of three experiments) (MRGPRA1 [2]; [Ligand] 2.441e-7 M): 0
Transformed binding isotherm (mean of three experiments) (MRGPRA1 [2]; [Ligand] 4.883e-7 M): 0
Transformed binding isotherm (mean of three experiments) (MRGPRA1 [2]; [Ligand] 9.766e-7 M): 0
Transformed binding isotherm (mean of three experiments) (MRGPRA1 [2]; [Ligand] 1.9531e-6 M): 0
Transformed binding isotherm (mean of three experiments) (MRGPRA1 [2]; [Ligand] 3.9063e-6 M): 0
Transformed binding isotherm (mean of three experiments) (MRGPRA1 [2]; [Ligand] 7.8125e-6 M): 0
Transformed binding isotherm (mean of three experiments) (MRGPRA1 [2]; [Ligand] 1.5625e-5 M): 0
Transformed binding isotherm (mean of three experiments) (MRGPRA1 [2]; [Ligand] 3.125e-5 M): 0
Transformed binding isotherm (mean of three experiments) (MRGPRA1 [2]; [Ligand] 6.25e-5 M): 0
Transformed binding isotherm (mean of three experiments) (MRGPRA1 [2]; [Ligand] 0.000125 M): 0
Transformed binding isotherm (mean of three experiments) (MRGPRA1 [2]; [Ligand] 0.00025 M): 0
Transformed binding isotherm (mean of three experiments) (MRGPRA1 [2]; [Ligand] 0.0005 M): 0
Binding to MRGPRA1 (MRGPRA1 [2]; microscale thermophoresis): did not bind
microscale thermophoresis response (binding isotherm), mean (MRGPRX4; [Ligand] 3.05e-8 M): 0
microscale thermophoresis response (binding isotherm), mean (MRGPRX4; [Ligand] 6.1e-8 M): 0
microscale thermophoresis response (binding isotherm), mean (MRGPRX4; [Ligand] 1.221e-7 M): 0
microscale thermophoresis response (binding isotherm), mean (MRGPRX4; [Ligand] 2.441e-7 M): 0
microscale thermophoresis response (binding isotherm), mean (MRGPRX4; [Ligand] 4.883e-7 M): 0
microscale thermophoresis response (binding isotherm), mean (MRGPRX4; [Ligand] 9.766e-7 M): 0
microscale thermophoresis response (binding isotherm), mean (MRGPRX4; [Ligand] 1.9531e-6 M): 0
microscale thermophoresis response (binding isotherm), mean (MRGPRX4; [Ligand] 3.9063e-6 M): 0
microscale thermophoresis response (binding isotherm), mean (MRGPRX4; [Ligand] 7.8125e-6 M): 0
microscale thermophoresis response (binding isotherm), mean (MRGPRX4; [Ligand] 1.5625e-5 M): 0
microscale thermophoresis response (binding isotherm), mean (MRGPRX4; [Ligand] 3.125e-5 M): 0
microscale thermophoresis response (binding isotherm), mean (MRGPRX4; [Ligand] 6.25e-5 M): 0
microscale thermophoresis response (binding isotherm), mean (MRGPRX4; [Ligand] 0.000125 M): 0
microscale thermophoresis response (binding isotherm), mean (MRGPRX4; [Ligand] 0.00025 M): 0
microscale thermophoresis response (binding isotherm), mean (MRGPRX4; [Ligand] 0.0005 M): 0
Binding to MRGPRX4 (MRGPRX4; microscale thermophoresis): did not bind
